Assay results taken from patent US20260232578A1, “COMPOSITIONS AND METHODS FOR TRANSMUCOSAL ABSORPTION” (Tonix Pharma Limited, priority 2012, published 2026).
Structures can show the parent of a compound that is named as a salt.

Columns and labels:
5-HT1A receptor = target: T1, 5-HT1A receptor (Homo sapiens, UniProt P08908); assay: Equilibrium receptor binding, recombinant human receptor
T1 construct: expressed in transfected cells
T1 sequence (P08908 1-422): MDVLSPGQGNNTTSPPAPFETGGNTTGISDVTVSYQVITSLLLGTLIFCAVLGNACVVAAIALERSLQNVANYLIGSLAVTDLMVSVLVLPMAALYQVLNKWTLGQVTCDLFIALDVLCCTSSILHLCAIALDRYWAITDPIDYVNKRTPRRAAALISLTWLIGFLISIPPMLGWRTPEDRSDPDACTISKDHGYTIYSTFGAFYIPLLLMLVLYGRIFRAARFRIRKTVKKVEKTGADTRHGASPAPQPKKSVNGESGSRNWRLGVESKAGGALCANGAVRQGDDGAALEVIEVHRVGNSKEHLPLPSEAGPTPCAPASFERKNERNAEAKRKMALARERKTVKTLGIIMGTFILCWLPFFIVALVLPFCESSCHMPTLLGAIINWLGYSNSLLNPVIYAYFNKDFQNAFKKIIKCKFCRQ

muscarinic M2 receptor = muscarinic M2 receptor (Homo sapiens, UniProt P08172); assay: as above; parameters: expressed in transfected cells
[1] = target: T2, adrenergic alpha-2A receptor (Alpha2A) (Homo sapiens, UniProt P08913); assay: as above
T2 construct: expressed in transfected cells
T2 sequence (P08913 1-465): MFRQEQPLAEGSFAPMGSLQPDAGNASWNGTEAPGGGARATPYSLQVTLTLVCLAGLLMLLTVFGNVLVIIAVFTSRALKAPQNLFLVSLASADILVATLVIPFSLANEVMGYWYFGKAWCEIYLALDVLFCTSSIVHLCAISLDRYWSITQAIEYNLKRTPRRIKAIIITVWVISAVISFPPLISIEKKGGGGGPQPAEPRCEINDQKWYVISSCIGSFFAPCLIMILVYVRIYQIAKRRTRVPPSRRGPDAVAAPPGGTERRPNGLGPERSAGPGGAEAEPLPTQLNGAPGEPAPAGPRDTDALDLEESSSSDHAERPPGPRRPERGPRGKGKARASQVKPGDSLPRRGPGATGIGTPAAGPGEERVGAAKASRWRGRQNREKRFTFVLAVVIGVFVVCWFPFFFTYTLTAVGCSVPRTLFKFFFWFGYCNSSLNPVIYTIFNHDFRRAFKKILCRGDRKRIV

[2] = target: T3, adrenergic alpha-2C receptor (Alpha2C) (Homo sapiens, UniProt P18825); assay: as above
T3 construct: expressed in transfected cells
T3 sequence (P18825 1-462): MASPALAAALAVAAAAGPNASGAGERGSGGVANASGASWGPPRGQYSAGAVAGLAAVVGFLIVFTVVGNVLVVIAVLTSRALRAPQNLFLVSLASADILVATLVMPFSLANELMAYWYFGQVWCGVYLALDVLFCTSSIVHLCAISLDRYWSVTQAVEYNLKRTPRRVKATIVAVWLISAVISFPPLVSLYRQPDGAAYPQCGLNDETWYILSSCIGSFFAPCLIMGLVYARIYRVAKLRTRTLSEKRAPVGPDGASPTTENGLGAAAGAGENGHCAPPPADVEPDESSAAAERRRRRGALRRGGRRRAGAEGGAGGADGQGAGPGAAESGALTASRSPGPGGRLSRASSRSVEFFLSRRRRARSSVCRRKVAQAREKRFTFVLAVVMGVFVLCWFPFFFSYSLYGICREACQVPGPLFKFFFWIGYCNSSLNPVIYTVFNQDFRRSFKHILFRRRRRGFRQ

5-HT2C receptor = target: T4, 5-HT2C receptor (Homo sapiens, UniProt P28335); assay: as above
T4 construct: expressed in transfected cells
T4 sequence (P28335 33-458): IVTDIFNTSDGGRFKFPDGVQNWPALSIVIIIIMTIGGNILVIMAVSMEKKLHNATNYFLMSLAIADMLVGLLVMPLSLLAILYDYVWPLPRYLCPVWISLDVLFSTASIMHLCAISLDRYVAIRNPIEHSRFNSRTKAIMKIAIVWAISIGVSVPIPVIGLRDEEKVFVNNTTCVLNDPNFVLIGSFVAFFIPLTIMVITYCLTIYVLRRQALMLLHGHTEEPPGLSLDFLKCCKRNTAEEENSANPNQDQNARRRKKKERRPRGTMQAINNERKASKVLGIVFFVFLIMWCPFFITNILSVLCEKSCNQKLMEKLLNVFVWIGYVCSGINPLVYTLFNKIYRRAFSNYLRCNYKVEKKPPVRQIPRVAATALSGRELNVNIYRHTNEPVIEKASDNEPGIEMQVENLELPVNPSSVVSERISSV

[3] = Stress stability at 50° C., purity profile; assay type: physicochemical
Description: In order to evaluate the stability of the formulations described above, prototype A, B, C, D were maintained under the 50° C. stress condition for 30 days.

[4] = T0, samples stored at room temperature
[5] = T15days, active ingredient without excipients

Chain of muscarinic M2 receptor (P08172 whole entry): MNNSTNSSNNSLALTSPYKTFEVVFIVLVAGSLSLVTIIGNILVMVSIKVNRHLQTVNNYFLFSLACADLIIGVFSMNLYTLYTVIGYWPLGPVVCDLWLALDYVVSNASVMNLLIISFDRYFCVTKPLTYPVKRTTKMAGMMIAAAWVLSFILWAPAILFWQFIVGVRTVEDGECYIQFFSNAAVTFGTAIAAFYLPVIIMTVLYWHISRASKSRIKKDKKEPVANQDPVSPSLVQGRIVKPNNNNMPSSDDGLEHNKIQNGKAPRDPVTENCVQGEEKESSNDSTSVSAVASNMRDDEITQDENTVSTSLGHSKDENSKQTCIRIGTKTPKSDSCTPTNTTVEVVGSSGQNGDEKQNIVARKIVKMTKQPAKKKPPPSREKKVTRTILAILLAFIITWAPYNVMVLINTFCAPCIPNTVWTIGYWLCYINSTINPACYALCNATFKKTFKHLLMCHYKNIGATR

Compound | Ki (5-HT1A receptor) | Ki (muscarinic M2 receptor) | Ki [1] | Ki [2] | Ki (5-HT2C receptor) | Impurity 1 (Dibenzosuberenone, RT = about 56′) [3, 4] | Impurity 2 (Carbinole, RT = about 6′) [3, 4] | Impurity 4 (Amitriptyline, RT = about 15′) [3, 4] | Total Impurities [3, 4] | Unknown 1 (RT = about 16′) [3, 4] | Unknown 2 (RT = about 17.5′) [3, 4] | Unknown 3 (RT = about 7.5′) [3, 4] | Impurity 1 (Dibenzosuberenone, RT = about 56′) [3, 5] | Impurity 2 (Carbinole, RT = about 6′) [3, 5] | Impurity 4 (Amitriptyline, RT = about 15′) [3, 5] | Total Impurities [3, 5] | Unknown 1 (RT = about 16′) [3, 5] | Unknown 2 (RT = about 17.5′) [3, 5] | Unknown 3 (RT = about 7.5′) [3, 5]
CNCCC=C1c2ccccc2CCc2ccccc21 [nortriptyline] | 100 nM | 140 nM | – | – | – | – | – | – | – | – | – | – | – | – | – | – | – | – | –
CN(C)CCC=C1c2ccccc2CCc2ccccc21 [amitriptyline, 3-(10,11-dihydro-5H-dibenzo [a,d]cycloheptene-5-ylidene)-N,N-dimethyl-1-propanamine] | 220 nM | – | 250 nM | 14 nM | 28 nM | – | – | – | – | – | – | – | – | – | – | – | – | – | –
CN(C)CCC=C1c2ccccc2C=Cc2ccccc21 [Cyclobenzaprine HCl (Dipharma)] | – | – | – | – | – | Absent | Absent | Absent | 0.005% | 0.005% | Absent | 0.028% | Absent | Absent | Absent | 0.003% | Absent | 0.003% | 0.008%
CN(C)CCC=C1c2ccccc2C=Cc2ccccc21 [Cyclobenzaprine HCl (Sifavitor)] | – | – | – | – | – | Absent | Absent | Absent | 0.020% | 0.020% | Absent | Absent | Absent | Absent | Absent | 0.019% | Absent | 0.019% | Absent
